Test system: 156681-154-R-J1 tumor spheroid viability
Test: Anticancer human tumor 156681-154-R-J1 patient-derived melanoma cell line growth inhibition
Settings: spheroids with HUVEC and MSC; for IC50: curve of first compound; for viability, T/C: stronger effect = lower value
In short: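 Single agents and combinations were tested on spheroids built from tumor cells plus HUVEC and hMSC, at half-log dilutions starting at or near clinical Cmax, else 10 microM; final DMSO 0.25% (v/v).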

[1] = second compound 30 pM, first compound 0.0316 µM
[2] = second compound 30 pM, first compound 0.1 µM
[3] = second compound 30 pM, first compound 0.316 µM
[4] = second compound 30 pM, first compound 1 µM
[5] = second compound 30 pM, first compound 3.16 µM
[6] = second compound 30 pM, first compound 10 µM
[7] = second compound 94.9 pM, first compound 0.0316 µM
[8] = second compound 94.9 pM, first compound 0.1 µM
[9] = second compound 94.9 pM, first compound 0.316 µM
[10] = second compound 94.9 pM, first compound 1 µM
[11] = second compound 94.9 pM, first compound 3.16 µM
[12] = second compound 94.9 pM, first compound 10 µM
[13] = second compound 0.0003 µM, first compound 0.0316 µM
[14] = second compound 0.0003 µM, first compound 0.1 µM
[15] = second compound 0.0003 µM, first compound 0.316 µM
[16] = second compound 0.0003 µM, first compound 1 µM
[17] = second compound 0.0003 µM, first compound 3.16 µM
[18] = second compound 0.0003 µM, first compound 10 µM
[19] = second compound 0.000949 µM, first compound 0.0316 µM
[20] = second compound 0.000949 µM, first compound 0.1 µM
[21] = second compound 0.000949 µM, first compound 0.316 µM
[22] = second compound 0.000949 µM, first compound 1 µM
[23] = second compound 0.000949 µM, first compound 3.16 µM
[24] = second compound 0.000949 µM, first compound 10 µM
[25] = second compound 0.003 µM, first compound 0.0316 µM
[26] = second compound 0.003 µM, first compound 0.1 µM
[27] = second compound 0.003 µM, first compound 0.316 µM
[28] = second compound 0.003 µM, first compound 1 µM
[29] = second compound 0.003 µM, first compound 3.16 µM
[30] = second compound 0.003 µM, first compound 10 µM
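Also: spheroids exposed to compounds for 7 days before readout.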
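For viability, T/C in this document: percent of vehicle control viability where 100% = DMSO-treated spheroids.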

Question: What does the source list for `Cc1cc(C)c(CNC(=O)c2cc(-c3ccc(CN4CCOCC4)cc3)cc3c2cnn3C2CCCC2)c(=O)[nH]1` + COc1cc2c(cc1O)CCNC21CSC2c3c(OC(C)=O)c(C)c4c(c3C(COC1=O)N1C(O)C3Cc5cc(C)c(OC)c(O)c5C(C21)N3C)OCO4?
Answer: IC50 (second compound 30 pM): > 10 µM; IC50 (second compound 94.9 pM): > 10 µM; IC50 (second compound 0.0003 µM): > 10 µM; IC50 (second compound 0.000949 µM): < 0.0316 µM; IC50 (second compound 0.003 µM): < 0.0316 µM; viability, T/C [1]: 103%; viability, T/C [2]: 106%; viability, T/C [3]: 87.3%; viability, T/C [4]: 78.7%; viability, T/C [5]: 81.5%; viability, T/C [6]: 87.8%; viability, T/C [7]: 100%; viability, T/C [8]: 93.8%; viability, T/C [9]: 89%; viability, T/C [10]: 77.6%; viability, T/C [11]: 86.4%; viability, T/C [12]: 78.8%; viability, T/C [13]: 76.2%; viability, T/C [14]: 74.5%; viability, T/C [15]: 76.2%; viability, T/C [16]: 79.6%; viability, T/C [17]: 72.7%; viability, T/C [18]: 66.4%; viability, T/C [19]: 4.8%; viability, T/C [20]: 6.16%; viability, T/C [21]: 5.29%; viability, T/C [22]: 6.16%; viability, T/C [23]: 3.09%; viability, T/C [24]: 1.36%; viability, T/C [25]: 0.35%; viability, T/C [26]: 0.31%; viability, T/C [27]: 0.24%; viability, T/C [28]: 0.18%; viability, T/C [29]: 0.16%; viability, T/C [30]: 0.28%

Question: Which results are given for `[2H]c1nc(C)nc([2H])c1-c1cc(NC[C@@H](C)c2cccc3c(C(=O)NC)ccnc23)ncn1` + COc1cc2c(cc1O)CCNC21CSC2c3c(OC(C)=O)c(C)c4c(c3C(COC1=O)N1C(O)C3Cc5cc(C)c(OC)c(O)c5C(C21)N3C)OCO4?
Answer: IC50 (second compound 30 pM): > 10 µM; IC50 (second compound 94.9 pM): > 10 µM; IC50 (second compound 0.0003 µM): > 10 µM; IC50 (second compound 0.000949 µM): < 0.0316 µM; IC50 (second compound 0.003 µM): < 0.0316 µM; viability, T/C [1]: 91.3%; viability, T/C [2]: 96%; viability, T/C [3]: 109%; viability, T/C [4]: 95.1%; viability, T/C [5]: 92.3%; viability, T/C [6]: 94%; viability, T/C [7]: 89.6%; viability, T/C [8]: 111%; viability, T/C [9]: 105%; viability, T/C [10]: 85%; viability, T/C [11]: 90.4%; viability, T/C [12]: 76.8%; viability, T/C [13]: 79.7%; viability, T/C [14]: 86.6%; viability, T/C [15]: 80%; viability, T/C [16]: 75.3%; viability, T/C [17]: 81.9%; viability, T/C [18]: 62.4%; viability, T/C [19]: 6.44%; viability, T/C [20]: 4.98%; viability, T/C [21]: 4.24%; viability, T/C [22]: 4.33%; viability, T/C [23]: 3.62%; viability, T/C [24]: 3.23%; viability, T/C [25]: 0.26%; viability, T/C [26]: 0.3%; viability, T/C [27]: 0.22%; viability, T/C [28]: 0.17%; viability, T/C [29]: 0.17%; viability, T/C [30]: 0.28%
